Test results reported in patent publication US11731977B2, “SGC stimulators” (Cyclerion Therapeutics, Inc., priority 2016, dated 2023).

Molecular target: T1, sGC enzyme (Homo sapiens, UniProt Q02108+Q02153)
T1 construct: sGC enzyme activity values in HEK cells, determined by the GloSensor assay; host or cells: HEK293 cells stably expressing GloSensor 40F cGMP biosensor
T1 sequence (Q02153 1-619): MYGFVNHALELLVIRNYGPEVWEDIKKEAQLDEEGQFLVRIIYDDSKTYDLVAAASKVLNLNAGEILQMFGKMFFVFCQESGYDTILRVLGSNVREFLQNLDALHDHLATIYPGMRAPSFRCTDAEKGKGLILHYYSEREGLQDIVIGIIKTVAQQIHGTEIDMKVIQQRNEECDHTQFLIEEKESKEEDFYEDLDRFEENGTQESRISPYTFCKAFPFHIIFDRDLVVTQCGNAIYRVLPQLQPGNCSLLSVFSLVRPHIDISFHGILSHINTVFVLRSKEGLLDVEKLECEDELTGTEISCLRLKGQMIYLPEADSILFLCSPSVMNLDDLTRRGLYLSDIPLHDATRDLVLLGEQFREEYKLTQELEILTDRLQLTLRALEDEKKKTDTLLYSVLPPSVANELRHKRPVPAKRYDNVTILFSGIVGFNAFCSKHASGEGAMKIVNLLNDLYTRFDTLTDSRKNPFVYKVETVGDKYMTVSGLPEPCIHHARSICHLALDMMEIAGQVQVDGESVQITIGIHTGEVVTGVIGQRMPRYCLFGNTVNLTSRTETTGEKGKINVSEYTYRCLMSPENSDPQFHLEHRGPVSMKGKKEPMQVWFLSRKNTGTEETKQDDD
T1 sequence (Q02108 1-690): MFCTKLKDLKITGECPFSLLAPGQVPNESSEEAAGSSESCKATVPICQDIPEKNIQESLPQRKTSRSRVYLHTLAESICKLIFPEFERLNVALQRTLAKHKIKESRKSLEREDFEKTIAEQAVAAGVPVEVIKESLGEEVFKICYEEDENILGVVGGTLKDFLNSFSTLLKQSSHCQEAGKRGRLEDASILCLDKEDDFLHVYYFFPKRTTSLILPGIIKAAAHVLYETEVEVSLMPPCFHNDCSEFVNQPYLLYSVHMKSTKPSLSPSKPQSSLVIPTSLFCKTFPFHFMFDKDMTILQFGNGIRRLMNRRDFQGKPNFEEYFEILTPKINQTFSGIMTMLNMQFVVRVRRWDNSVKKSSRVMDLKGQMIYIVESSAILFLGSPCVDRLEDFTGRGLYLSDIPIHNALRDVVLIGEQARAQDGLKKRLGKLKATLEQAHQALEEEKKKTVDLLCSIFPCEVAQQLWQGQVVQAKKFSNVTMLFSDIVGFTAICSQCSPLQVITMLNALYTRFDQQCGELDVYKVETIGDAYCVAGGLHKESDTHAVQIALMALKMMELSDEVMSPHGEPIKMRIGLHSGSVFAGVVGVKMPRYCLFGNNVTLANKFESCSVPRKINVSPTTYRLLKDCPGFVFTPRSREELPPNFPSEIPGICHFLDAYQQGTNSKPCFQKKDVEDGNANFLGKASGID
Assay: cGMP GloSensor cell-based assay, 384-well format (Example 2a)
Conditions: HEK293 GloSensor 40F cGMP cells; 10 μM DETA-NONOate; 50% of high control (30 μM Compound Y); read-out: Abs EC50
Method in brief: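 HEK293 cells expressing GloSensor 40F cGMP biosensor, pre-equilibrated with GloSensor substrate 90 min at 25 °C, then given compound (final 0.029–30000 nM) plus 10 μM DETA-NONOate; luminescence read after 55 min at room temperature. Normalized to 1% DMSO (low) and 30 μM Compound Y (high); Abs EC50 from 4-parameter fit, n=2, geometric mean.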

Row | EC50 | Compound
1 | ≤ 100 nM | Fc1ccccc1Cc1nc(-c2nc(C(F)(F)F)n[nH]2)cn2ccnc12 [Compound I-1, 8-(2-fluorobenzyl)-6-(3-(trifluoromethyl)-1H-1,2,4-triazol-5-yl)imidazo[1,2-a]pyrazine]
2 | ≤ 100 nM | Fc1cccc(Cc2nc(-c3nc(C(F)(F)F)n[nH]3)cn3ccnc23)c1 [Compound I-2, 8-(3-Fluorobenzyl)-6-(3-(trifluoromethyl)-1H-1,2,4-triazol-5-yl)imidazo[1,2-a]pyrazine]
3 | 100 to 1000 nM | Fc1cccc(Cc2nc(-c3nc(C(F)F)n[nH]3)cn3ccnc23)c1 [Compound I-3, 6-(3-(Difluoromethyl)-1H-1,2,4-triazol-5-yl)-8-(3-fluorobenzyl)imidazo[1,2-a]pyrazine]
4 | ≤ 100 nM | Fc1cccc(Cc2nc(-c3nc(C(F)(F)F)n[nH]3)cn3ccnc23)c1F [Compound I-10, 8-(2,3-Difluorobenzyl)-6-(3-(trifluoromethyl)-1H-1,2,4-triazol-5-yl)imidazo[1,2-a]pyrazine]
5 | 100 to 1000 nM | Fc1cccc(Cc2nc(-c3nc(C(F)F)n[nH]3)cn3ccnc23)c1F [Compound I-11, 8-(2,3-Difluorobenzyl)-6-(3-(difluoromethyl)-1H-1,2,4-triazol-5-yl)imidazo[1,2-a]pyrazine]
6 | ≤ 100 nM | Fc1ccccc1Cc1nc(-c2nc(C(F)F)n[nH]2)cn2ccnc12 [Compound I-14, 8-(2-Fluorobenzyl)-6-(3-(difluoromethyl)-1H-1,2,4-triazol-5-yl)imidazo[1,2-a]pyrazine]
7 | ≤ 100 nM | Fc1ccccc1Cc1nc(-c2nc(C(F)(F)F)n[nH]2)cn2ncnc12 [Compound I-16, 8-(2-Fluorobenzyl)-6-(3-(trifluoromethyl)-1H-1,2,4-triazol-5-yl)-[1,2,4]triazolo[1,5-a]pyrazine]
